# In paper PMC5218480 (PLoS ONE, 2017):
# Test system: MV-4-11 cells
# Test: Gene expression microarray analysis (Affymetrix PrimeView) and GSEA
# Type: cell-based, human
# Design: RFU PODN (11730768_x_at) / Fold change /veh PODN (11730768_x_at) / RFU LINC00158 (11744669_a_at) / Fold change /veh LINC00158 (11744669_a_at) / RFU DUSP10 (11751237_a_at) / Fold change /veh DUSP10 (11751237_a_at) / RFU ID3 (11757404_x_at) / Fold change /veh ID3 (11757404_x_at) / RFU PLEKHG5 (11737974_s_at) / Fold change /veh PLEKHG5 (11737974_s_at) / RFU LRRC4B (11730491_at) / Fold change /veh LRRC4B (11730491_at) / RFU GIMAP4 (11747438_a_at) / Fold change /veh GIMAP4 (11747438_a_at) / RFU KRT8 (11758183_x_at) / Fold change /veh KRT8 (11758183_x_at) / RFU CNN1 (11734310_a_at) / Fold change /veh CNN1 (11734310_a_at) / RFU VPS37D (11726825_at) / Fold change /veh VPS37D (11726825_at) / RFU C10orf10 (11716522_x_at) / Fold change /veh C10orf10 (11716522_x_at) / RFU KIR2DL2 /// KIR2DL4 /// KIR2DL5A /// KIR2DL5B /// KIR2DS1 /// KIR2DS2 /// KIR2DS3 /// KIR2DS4 /// KIR3DL3 /// KIR3DL3 /// KIR3DS1 (11738374_at) / Fold change /veh KIR2DL2 /// KIR2DL4 /// KIR2DL5A /// KIR2DL5B /// KIR2DS1 /// KIR2DS2 /// KIR2DS3 /// KIR2DS4 /// KIR3DL3 /// KIR3DL3 /// KIR3DS1 (11738374_at) / RFU C1QL1 (11718748_at) / Fold change /veh C1QL1 (11718748_at) / RFU TMPRSS4 (11747572_a_at) / Fold change /veh TMPRSS4 (11747572_a_at) / RFU HAMP (11756126_x_at) / Fold change /veh HAMP (11756126_x_at) / RFU RNFT2 (11725882_a_at) / Fold change /veh RNFT2 (11725882_a_at) / RFU NR4A2 (11747474_a_at) / Fold change /veh NR4A2 (11747474_a_at) / RFU ABCC12 (11746883_a_at) / Fold change /veh ABCC12 (11746883_a_at) / RFU TMEM136 (11760407_x_at) / Fold change /veh TMEM136 (11760407_x_at) / RFU CLDN22 /// WWC2 (11732394_at) / Fold change /veh CLDN22 /// WWC2 (11732394_at) / RFU HLA-DPB1 (11760878_x_at) / Fold change /veh HLA-DPB1 (11760878_x_at) / RFU SPINT1 (11716480_a_at) / Fold change /veh SPINT1 (11716480_a_at) / RFU GAP43 (11754022_s_at) / Fold change /veh GAP43 (11754022_s_at) / RFU A4GNT (11735810_at) / Fold change /veh A4GNT (11735810_at) / RFU PRB3 (11715151_x_at) / Fold change /veh PRB3 (11715151_x_at) / RFU TUBB4B (11761932_at) / Fold change /veh TUBB4B (11761932_at) / RFU CAPN14 (11732068_a_at) / Fold change /veh CAPN14 (11732068_a_at) / RFU TMCC2 (11721928_a_at) / Fold change /veh TMCC2 (11721928_a_at) / RFU IRGQ (11745062_a_at) / Fold change /veh IRGQ (11745062_a_at) / RFU FAM174B (11720279_a_at) / Fold change /veh FAM174B (11720279_a_at) / RFU TMPRSS4 (11748680_a_at) / Fold change /veh TMPRSS4 (11748680_a_at) / RFU FAM212B (11763350_a_at) / Fold change /veh FAM212B (11763350_a_at) / RFU PLEKHG5 (11743358_a_at) / Fold change /veh PLEKHG5 (11743358_a_at) / RFU ZSCAN30 (11745921_a_at) / Fold change /veh ZSCAN30 (11745921_a_at) / RFU CMKLR1 (11741424_a_at) / Fold change /veh CMKLR1 (11741424_a_at) / RFU LOC101060620 /// MAPK8IP1 (11723275_at) / Fold change /veh LOC101060620 /// MAPK8IP1 (11723275_at) / RFU SPTSSB (11747773_x_at) / Fold change /veh SPTSSB (11747773_x_at) / RFU PRSS12 (11739890_at) / Fold change /veh PRSS12 (11739890_at) / RFU BIN1 (11741810_x_at) / Fold change /veh BIN1 (11741810_x_at) / RFU WNT11 (11732464_a_at) / Fold change /veh WNT11 (11732464_a_at) / RFU C10orf10 (11716521_a_at) / Fold change /veh C10orf10 (11716521_a_at) / RFU C5orf56 (11738089_at) / Fold change /veh C5orf56 (11738089_at) / RFU CYB561 (11721691_x_at) / Fold change /veh CYB561 (11721691_x_at) / RFU ANKRD19P (11752326_a_at) / Fold change /veh ANKRD19P (11752326_a_at) / RFU OR2T12 /// OR2T33 /// OR2T8 (11738714_s_at) / Fold change /veh OR2T12 /// OR2T33 /// OR2T8 (11738714_s_at) / RFU VCAN (11748164_a_at) / Fold change /veh VCAN (11748164_a_at) / RFU JSRP1 (11732532_at) / Fold change /veh JSRP1 (11732532_at) / RFU KRTAP10-11 (11738290_x_at) / Fold change /veh KRTAP10-11 (11738290_x_at) / RFU MYO3A (11730013_a_at) / Fold change /veh MYO3A (11730013_a_at) / RFU EBF3 (11725865_a_at) / Fold change /veh EBF3 (11725865_a_at) / RFU CAMK2N1 (11719241_x_at) / Fold change /veh CAMK2N1 (11719241_x_at) / RFU C5orf56 (11738088_a_at) / Fold change /veh C5orf56 (11738088_a_at) / RFU OLFML3 (11715873_a_at) / Fold change /veh OLFML3 (11715873_a_at) / RFU LOC100653217 /// NTM (11731650_a_at) / Fold change /veh LOC100653217 /// NTM (11731650_a_at) / RFU MAPK11 (11762145_a_at) / Fold change /veh MAPK11 (11762145_a_at) / RFU FIZ1 (11724087_x_at) / Fold change /veh FIZ1 (11724087_x_at) / RFU OASL (11726364_x_at) / Fold change /veh OASL (11726364_x_at) / RFU SOX15 (11748057_x_at) / Fold change /veh SOX15 (11748057_x_at) / RFU CD79A (11719716_a_at) / Fold change /veh CD79A (11719716_a_at) / RFU HIST1H1D (11736915_at) / Fold change /veh HIST1H1D (11736915_at) / RFU CASKIN2 (11723855_a_at) / Fold change /veh CASKIN2 (11723855_a_at) / RFU LOC730098 (11760151_x_at) / Fold change /veh LOC730098 (11760151_x_at) / RFU OR4N2 (11742367_at) / Fold change /veh OR4N2 (11742367_at) / RFU PRRT2 (11749266_a_at) / Fold change /veh PRRT2 (11749266_a_at) / RFU SNX32 (11753110_a_at) / Fold change /veh SNX32 (11753110_a_at) / RFU CDHR5 (11726645_a_at) / Fold change /veh CDHR5 (11726645_a_at) / RFU RCAN1 (11760418_a_at) / Fold change /veh RCAN1 (11760418_a_at) / RFU FAM167A (11723789_a_at) / Fold change /veh FAM167A (11723789_a_at) / RFU FAM26E (11764081_at) / Fold change /veh FAM26E (11764081_at) / RFU ISYNA1 (11749810_s_at) / Fold change /veh ISYNA1 (11749810_s_at) / RFU ACY1 (11761880_at) / Fold change /veh ACY1 (11761880_at) / RFU 11764098_at / Fold change /veh 11764098_at / RFU SAMD14 (11745864_x_at) / Fold change /veh SAMD14 (11745864_x_at) / RFU NPB (11741838_a_at) / Fold change /veh NPB (11741838_a_at) / RFU TMPRSS6 (11731388_a_at) / Fold change /veh TMPRSS6 (11731388_a_at) / RFU KRTAP10-2 (11738614_at) / Fold change /veh KRTAP10-2 (11738614_at) / RFU ARHGAP8 /// PRR5-ARHGAP8 (11727945_x_at) / Fold change /veh ARHGAP8 /// PRR5-ARHGAP8 (11727945_x_at) / RFU KRTAP5-7 /// NADSYN1 (11734609_at) / Fold change /veh KRTAP5-7 /// NADSYN1 (11734609_at) / RFU RASL12 (11751679_a_at) / Fold change /veh RASL12 (11751679_a_at) / RFU CDKN2B (11736163_a_at) / Fold change /veh CDKN2B (11736163_a_at) / RFU PRF1 (11729649_at) / Fold change /veh PRF1 (11729649_at) / RFU, ZNF638 /// ZNF638-IT1 / Fold change vs veh, ZNF638 /// ZNF638-IT1 / RFU, PANK3 / Fold change vs veh, PANK3 / RFU, SH3YL1 / Fold change vs veh, SH3YL1 / RFU, ZEB2 / Fold change vs veh, ZEB2 / RFU, NRIP1 / Fold change vs veh, NRIP1 / RFU, PTTG1IP / Fold change vs veh, PTTG1IP / RFU, CAPN2 / Fold change vs veh, CAPN2 / RFU, MED14 / Fold change vs veh, MED14 / RFU, SNORA58 / Fold change vs veh, SNORA58 / RFU, C1orf63 / Fold change vs veh, C1orf63 / RFU, LRRFIP1 / Fold change vs veh, LRRFIP1 / RFU, NDUFAF7 / Fold change vs veh, NDUFAF7 / RFU, SLC12A2 / Fold change vs veh, SLC12A2 / RFU, IBTK / Fold change vs veh, IBTK / RFU, ESF1 / Fold change vs veh, ESF1 / Fold change vs veh, TMEM50B / RFU, TAOK1 / Fold change vs veh, TAOK1 / RFU, ACBD3 / Fold change vs veh, ACBD3 / RFU, TMA16 / Fold change vs veh, TMA16 / RFU, RWDD3 / Fold change vs veh, RWDD3 / RFU, BCAT1 / Fold change vs veh, BCAT1 / RFU, EDEM3 / Fold change vs veh, EDEM3 / RFU, TMEM33 / Fold change vs veh, TMEM33 / RFU, WDR75 / Fold change vs veh, WDR75 / RFU, AHCTF1 / Fold change vs veh, AHCTF1 / RFU, TFRC / Fold change vs veh, TFRC / RFU, ZDHHC17 / Fold change vs veh, ZDHHC17 / RFU, NOM1 / Fold change vs veh, NOM1 / RFU, ARL8B / Fold change vs veh, ARL8B / RFU, ZBTB11 / Fold change vs veh, ZBTB11 / RFU, TAMM41 / Fold change vs veh, TAMM41 / RFU, KIAA1704 /// LOC100996395 / Fold change vs veh, KIAA1704 /// LOC100996395 / RFU, ING1 / Fold change vs veh, ING1 / RFU, TRMT61B / Fold change vs veh, TRMT61B / RFU, FUBP3 / Fold change vs veh, FUBP3 / RFU, TP53 / Fold change vs veh, TP53 / RFU, TNKS2 / Fold change vs veh, TNKS2 / RFU, ZFP14 / Fold change vs veh, ZFP14 / RFU, ACTR2 / Fold change vs veh, ACTR2 / RFU, PPP3R1 / Fold change vs veh, PPP3R1 / RFU, PIK3R1 / Fold change vs veh, PIK3R1 / RFU, HNRNPA1 / Fold change vs veh, HNRNPA1 / RFU, RNF170 / Fold change vs veh, RNF170 / RFU, ZNF28 / Fold change vs veh, ZNF28 / RFU, RNGTT / Fold change vs veh, RNGTT / RFU, OGT / Fold change vs veh, OGT / RFU, BRD1 / Fold change vs veh, BRD1 / RFU, MARS / Fold change vs veh, MARS / RFU, ZNF655 / Fold change vs veh, ZNF655 / RFU, FAHD1 / Fold change vs veh, FAHD1 / RFU, BDP1 / Fold change vs veh, BDP1 / RFU, LRRCC1 / Fold change vs veh, LRRCC1 / RFU, ARID1A / Fold change vs veh, ARID1A / RFU, ZNF146 / Fold change vs veh, ZNF146 / RFU, ZNF330 / Fold change vs veh, ZNF330 / RFU, GPN3 / Fold change vs veh, GPN3 / RFU, C9orf123 / Fold change vs veh, C9orf123 / RFU, N4BP2L2 / Fold change vs veh, N4BP2L2 / RFU, ARFIP1 / Fold change vs veh, ARFIP1 / RFU, FAM179B / Fold change vs veh, FAM179B / RFU, BCL10 / Fold change vs veh, BCL10 / RFU, UHRF1BP1L / Fold change vs veh, UHRF1BP1L / RFU, BET1 / Fold change vs veh, BET1 / RFU, CNOT2 / Fold change vs veh, CNOT2 / RFU, ZNF268 / Fold change vs veh, ZNF268 / Fold change vs veh, ZNF507 / RFU, DGCR2 / Fold change vs veh, DGCR2 / RFU, WDSUB1 / Fold change vs veh, WDSUB1 / Fold change vs veh, HSP90B1 /// MIR3652 / RFU, ADSS / Fold change vs veh, ADSS / RFU, GK / Fold change vs veh, GK / RFU, ZNF148 / Fold change vs veh, ZNF148 / RFU, TAF9 / Fold change vs veh, TAF9 / RFU, SLC1A5 / Fold change vs veh, SLC1A5 / RFU, SLMO2 / Fold change vs veh, SLMO2 / RFU, ABCC4 / Fold change vs veh, ABCC4 / RFU, LOC101060439 /// RAP1B / Fold change vs veh, LOC101060439 /// RAP1B / RFU, RFX7 / Fold change vs veh, RFX7 / RFU, GTPBP10 / Fold change vs veh, GTPBP10 / RFU, CNEP1R1 / Fold change vs veh, CNEP1R1 / RFU, BIVM-ERCC5 /// ERCC5 / Fold change vs veh, BIVM-ERCC5 /// ERCC5 / RFU, ILF3 / Fold change vs veh, ILF3 / RFU 11762660_at / Fold change /veh 11762660_at / RFU VCAN (11757783_s_at) / Fold change /veh VCAN (11757783_s_at) / RFU DDX43 (11728927_at) / Fold change /veh DDX43 (11728927_at) / RFU KRT8 (11758188_x_at) / Fold change /veh KRT8 (11758188_x_at) / RFU NKD1 (11759106_at) / Fold change /veh NKD1 (11759106_at) / RFU SRD5A1 (11742802_a_at) / Fold change /veh SRD5A1 (11742802_a_at) / RFU TPSAB1 /// TPSB2 (11721975_s_at) / Fold change /veh TPSAB1 /// TPSB2 (11721975_s_at) / RFU GSTM3 (11746129_a_at) / Fold change /veh GSTM3 (11746129_a_at) / RFU IL23R (11737362_x_at) / Fold change /veh IL23R (11737362_x_at) / RFU TMEM51 (11727254_a_at) / Fold change /veh TMEM51 (11727254_a_at) / RFU PIWIL2 (11732686_x_at) / Fold change /veh PIWIL2 (11732686_x_at) / RFU ORM1 (11744905_x_at) / Fold change /veh ORM1 (11744905_x_at) / RFU CCDC152 (11743942_at) / Fold change /veh CCDC152 (11743942_at) / RFU ECM1 (11717891_a_at) / Fold change /veh ECM1 (11717891_a_at) / RFU IL23R (11748794_a_at) / Fold change /veh IL23R (11748794_a_at) / RFU TNFAIP8L3 (11732012_x_at) / Fold change /veh TNFAIP8L3 (11732012_x_at) / RFU MBOAT4 (11741988_at) / Fold change /veh MBOAT4 (11741988_at) / RFU 11764193_at / Fold change /veh 11764193_at / RFU TMEM53 (11763286_at) / Fold change /veh TMEM53 (11763286_at) / RFU MAGEB2 (11727129_at) / Fold change /veh MAGEB2 (11727129_at) / RFU TMEM200A (11744735_a_at) / Fold change /veh TMEM200A (11744735_a_at) / RFU CCDC152 (11751479_a_at) / Fold change /veh CCDC152 (11751479_a_at) / RFU FAM211A (11726209_a_at) / Fold change /veh FAM211A (11726209_a_at) / RFU RGS16 (11746705_a_at) / Fold change /veh RGS16 (11746705_a_at) / RFU VCAN (11755009_s_at) / Fold change /veh VCAN (11755009_s_at) / RFU RHOB (11743442_s_at) / Fold change /veh RHOB (11743442_s_at) / RFU RGS16 (11720943_a_at) / Fold change /veh RGS16 (11720943_a_at) / RFU RGS16 (11720944_at) / Fold change /veh RGS16 (11720944_at) / RFU, VPS4B / Fold change vs veh, VPS4B / RFU, CREB1 / Fold change vs veh, CREB1 / RFU, DNAJC13 / Fold change vs veh, DNAJC13 / RFU, GNAQ / Fold change vs veh, GNAQ / RFU, CDK5R1 / Fold change vs veh, CDK5R1 / RFU, ZRANB3 / Fold change vs veh, ZRANB3 / RFU, CUL4A / Fold change vs veh, CUL4A / RFU, CCNY / Fold change vs veh, CCNY / RFU, UFL1 / Fold change vs veh, UFL1 / RFU, COG3 / Fold change vs veh, COG3 / RFU, DIAPH2 / Fold change vs veh, DIAPH2 / RFU, SKA2 / Fold change vs veh, SKA2 / RFU, AFF3 / Fold change vs veh, AFF3 / RFU, LMF1 / Fold change vs veh, LMF1 / RFU, IPO11 / Fold change vs veh, IPO11 / RFU, DFFB / Fold change vs veh, DFFB / RFU, FOXP1 / Fold change vs veh, FOXP1 / RFU, CARD8 / Fold change vs veh, CARD8 / RFU, STRN3 / Fold change vs veh, STRN3 / RFU, ADK / Fold change vs veh, ADK / RFU, RASSF2 / Fold change vs veh, RASSF2 / RFU, WIPF1 / Fold change vs veh, WIPF1 / RFU, LARP1B / Fold change vs veh, LARP1B / RFU, RASA1 / Fold change vs veh, RASA1 / RFU, RB1 / Fold change vs veh, RB1 / RFU, PPFIA1 / Fold change vs veh, PPFIA1 / RFU, MAT2A / Fold change vs veh, MAT2A / RFU, CCT5 / Fold change vs veh, CCT5 / RFU, WDR92 / Fold change vs veh, WDR92 / RFU, CUX1 / Fold change vs veh, CUX1 / RFU, TTC7A / Fold change vs veh, TTC7A / RFU, TMEM135 / Fold change vs veh, TMEM135 / RFU, DEPTOR / Fold change vs veh, DEPTOR / RFU, CPM / Fold change vs veh, CPM / RFU, DNAJB6 / Fold change vs veh, DNAJB6 / RFU, CACNA2D3 / Fold change vs veh, CACNA2D3 / RFU, DTX4 / Fold change vs veh, DTX4 / RFU, TFCP2 / Fold change vs veh, TFCP2 / RFU, GMCL1 /// GMCL1P1 / Fold change vs veh, GMCL1 /// GMCL1P1 / RFU, AEBP2 / Fold change vs veh, AEBP2 / RFU, SNHG1 /// SNORD22 /// SNORD25 /// SNORD26 /// SNORD27 /// SNORD28 /// SNORD29 /// SNORD31 / Fold change vs veh, SNHG1 /// SNORD22 /// SNORD25 /// SNORD26 /// SNORD27 /// SNORD28 /// SNORD29 /// SNORD31 / Fold change (Aza/veh), C12orf56 (ProbeSet 11735607_a_at) / Fold change (ACY-1035/veh), C12orf56 (ProbeSet 11735607_a_at) / Fold change (Aza/veh), FGFR1OP (ProbeSet 11751329_s_at) / Fold change (ACY-1035/veh), FGFR1OP (ProbeSet 11751329_s_at) / Fold change (Aza/veh), VPS36 (ProbeSet 11739960_a_at) / Fold change (ACY-1035/veh), VPS36 (ProbeSet 11739960_a_at) / RFU SYPL1 (11715823_x_at) / Fold change /veh SYPL1 (11715823_x_at) / RFU IGFBP7 (11715501_s_at) / Fold change /veh IGFBP7 (11715501_s_at) / RFU REEP3 (11722064_at) / Fold change /veh REEP3 (11722064_at) / RFU IGLL1 (11728026_x_at) / Fold change /veh IGLL1 (11728026_x_at): dose or concentration left out as unconfirmed
# Settings: ProbeSet 11717876_a_at; LIST D
smiles,measurement,value
Nc1ccc(-c2cccs2)cc1NC(=O)c1ccc2c(c1)cc(C1CC1)n2CCN1CCOCC1 [ACY-1035],"Fold change vs veh, PPFIA1",0.87
